Results taken from ChEMBL document CHEMBL6177939, “The role of silicon in drug discovery: a review” (RSC Med Chem, 2024).
≈ marks a conversion by molar mass, not a printed value.

How the values were obtained:
[1] = tested on: Rhizoctonia solani; assay: Antifungal activity against Rhizoctonia solani assessed as inhibition of fungal growth at 1 microg/ml relative to control; format: functional
[2] = tested on: HT-1080; assay: Cytotoxicity against human HT-1080 cells assessed as reduction in cell growth by measuring lethal concentration for 72 hrs by MTT assay; format: functional
[3] = tested on: MG-22A; assay: Cytotoxicity against mouse MG-22A cells assessed as reduction in cell growth by measuring lethal concentration for 72 hrs by MTT assay; format: functional
[4] = Agonist activity at rat GPR81 transfected in T-REX-CHO cells by cAMP assay; format: cell-based
[5] = biological target: Hydroxycarboxylic acid receptor 2 (Rattus norvegicus, UniProt Q80Z39); assay: Agonist activity at rat GPR109A transfected in T-REX-CHO cells by cAMP assay; format: cell-based
Sequence of Hydroxycarboxylic acid receptor 2 (Q80Z39 whole entry): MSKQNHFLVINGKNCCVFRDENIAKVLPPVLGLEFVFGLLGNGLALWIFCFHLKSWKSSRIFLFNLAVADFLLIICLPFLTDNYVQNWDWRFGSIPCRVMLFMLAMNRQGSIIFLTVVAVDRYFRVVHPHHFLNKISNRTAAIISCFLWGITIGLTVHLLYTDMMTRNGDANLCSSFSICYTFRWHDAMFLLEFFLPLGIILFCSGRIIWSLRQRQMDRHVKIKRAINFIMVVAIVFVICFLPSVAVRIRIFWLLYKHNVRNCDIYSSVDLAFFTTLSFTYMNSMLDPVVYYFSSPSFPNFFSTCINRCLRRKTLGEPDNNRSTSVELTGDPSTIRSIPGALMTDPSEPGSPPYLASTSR

[6] = tested on: Human immunodeficiency virus 2; assay: Antiviral activity against HIV-2 ROD infected in human MT-4 cells assessed as reduction in virus-induced cytopathic effect incubated for 5 days by spectrophotometric based MTT assay; format: functional, organism-based; settings: Human immunodeficiency virus 2, ROD, MT4, 120 h
[7] = biological target: Sigma non-opioid intracellular receptor 1 (Cavia porcellus, UniProt Q60492); assay: Binding affinity to guinea pig sigma 1 receptor assessed as inhibition constant
Sequence of Sigma non-opioid intracellular receptor 1 (Q60492 whole entry): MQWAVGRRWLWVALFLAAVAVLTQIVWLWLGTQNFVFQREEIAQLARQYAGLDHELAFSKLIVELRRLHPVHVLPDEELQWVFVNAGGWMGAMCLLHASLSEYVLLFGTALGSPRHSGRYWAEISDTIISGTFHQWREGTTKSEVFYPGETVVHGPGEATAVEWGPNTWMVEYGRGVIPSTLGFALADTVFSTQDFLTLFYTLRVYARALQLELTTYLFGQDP

[8] = tested on: Escherichia coli; assay: Antibacterial activity against Escherichia coli assessed as reduction in bacterial growth incubated for 12 hrs by broth micr-dilution method; format: functional
[9] = tested on: Bacillus subtilis; assay: Antibacterial activity against Bacillus subtilis assessed as reduction in bacterial growth incubated for 12 hrs by broth micr-dilution method; format: functional
[10] = tested on: Staphylococcus aureus; assay: Antibacterial activity against Staphylococcus aureus assessed as reduction in bacterial growth incubated for 12 hrs by broth micr-dilution method; format: functional
[11] = tested on: Vibrio cholerae; assay: Antibacterial activity against Vibrio cholerae assessed as inhibition of bacterial growth; format: functional
[12] = tested on: HT-1080; assay: Cytotoxicity against human HT-1080 cells assessed as reduction in cell growth measured for 72 hrs by crystal violet staining based analysis; format: functional; settings: HT-1080, 72 h
[13] = tested on: MG-22A; assay: Cytotoxicity against mouse MG-22A cells assessed as reduction in cell growth measured for 72 hrs by crystal violet staining based analysis; format: functional
[14] = tested on: Panel NCI-60 (60 carcinoma cell lines); assay: Cytotoxicity against human Panel NCI-60 (60 carcinoma cell lines) assessed as reduction in cell growth incubated for 72 hrs by CCK-8 assay; format: functional, cell-based
[15] = tested on: Staphylococcus aureus; assay: Antibacterial activity against Staphylococcus aureus PTCC 1112 assessed as reduction in cell growth incubated for 24 hrs by Mueller-Hinton Broth micro dilution method; format: functional
[16] = tested on: Escherichia coli; assay: Antibacterial activity against Escherichia coli PTCC 1330 assessed as reduction in cell growth incubated for 24 hrs by Mueller-Hinton Broth micro dilution method; format: functional
[17] = tested on: Salmonella typhimurium; assay: Antibacterial activity against Salmonella enterica subsp. enterica serovar Typhimurium PTCC 1609 assessed as reduction in cell growth incubated for 24 hrs by Mueller-Hinton Broth micro dilution method; format: functional
[18] = tested on: Pseudomonas aeruginosa; assay: Antibacterial activity against Pseudomonas aeruginosa PTCC 1074 assessed as reduction in cell growth incubated for 24 hrs by Mueller-Hinton Broth micro dilution method; format: functional
[19] = tested on: Staphylococcus epidermidis; assay: Antibacterial activity against Staphylococcus epidermidis assessed as inhibition of bacterial growth incubated for 24 hrs by nutrient agar plate method; format: functional

With `Cn1cc(C(=O)C(C#N)c2ccc([Si](C)(C)C)cc2)c(C(F)F)n1` (stereo not given) as the compound, how does the inhibition at 1 µg/mL [1] read?
The inhibition at 1 µg/mL was 91.2%.

For `CCCCCCCCCCCCCCCC[Si](C)(C)OCC[N+]1(C)CCc2ccccc2C1.[I-]` (stereo not given), which LC50 [2] is on record?
Its LC50 is under 1 µg/mL.

What about the LC50 [3] of the same compound?
The LC50 was 1 µg/mL.

Which EC50 [4] does the source give for `CCOc1cc(Cl)c(C(=O)NC(=O)Nc2nc3c(s2)C[Si](c2ccccc2)(c2ccc(OC)cc2)CC3)cc1-n1cccn1` (stereo not given) here?
The EC50 was 210 nM.

What about the EC50 [5] of the same compound?
The EC50 was 470 nM.

Which EC50 [6] does the source give for `CC(C)(C)[Si](C)(C)OC[C@H]1O[C@@H](n2ccc(=O)[nH]c2=O)[C@H](O[Si](C)(C)C(C)(C)C)[C@]12OS(=O)(=O)C=C2N` here?
Its EC50 is 0.114 µg/mL (≈ 0.198 µM).

For `c1ccc(CN2CC[Si]3(CCCc4ccccc43)CC2)cc1`, which Ki [7] is on record?
The Ki was 300 nM.

For `CCOc1cc(Cl)c(C(=O)NC(=O)Nc2nc3c(s2)CCCC3)cc1-n1cccn1`, which EC50 [4] is on record?
The EC50 was 18 nM.

What about the EC50 [5] of the same compound?
Its EC50 is 250 nM.

For `Cc1cc(=O)n(Cc2cn(CCC[Si-]345OCC[N+]3(CCO4)CCO5)nn2)c(=O)n1Cc1cn(CCC[Si-]234OCC[N+]2(CCO3)CCO4)nn1` (stereo not given), which MIC50 [8] is on record?
Its MIC50 is 0.18 µg/mL (≈ 0.25 µM).

And the MIC50 [9]?
The MIC50 was 0.18 µg/mL (≈ 0.25 µM).

And the MIC50 [10]?
Its MIC50 is 0.18 µg/mL (≈ 0.25 µM).

What about the MIC50 [11] of the same compound?
The MIC50 was 0.18 µg/mL (≈ 0.25 µM).

With `CCN(CC)CCC[Si](C)(c1ccc([Si](C)(C)C)o1)c1ccc([Si](C)(C)C)o1` as the compound, how does the IC50 [12] read?
The IC50 was 3 µg/mL (≈ 6.88 µM).

What about the IC50 [13] of the same compound?
Its IC50 is 3 µg/mL (≈ 6.88 µM).

With `CCOc1cc(Cl)c(C(=O)NC(=O)Nc2nc3c(s2)C[Si](c2ccccc2)(c2c(OC)cccc2OC)CC3)cc1-n1cccn1` (stereo not given) as the compound, how does the EC50 [4] read?
The EC50 was 210 nM.

What about the EC50 [5] of the same compound?
The EC50 was 470 nM.

With `c1ccc(CCN2CC[Si]3(CCCc4ccccc43)CC2)cc1` as the compound, how does the Ki [7] read?
The Ki was 300 nM.

What does the source list for `CC[Si](CC)(CC)c1ccc([Si](C)(CCCN2CCCCC2)c2ccc([Si](CC)(CC)CC)o2)o1`?
IC50 [12]: 3 µg/mL (≈ 5.64 µM); IC50 [13]: 3 µg/mL (≈ 5.64 µM)

Which results are given for `CCOc1cc(Cl)c(C(=O)NC(=O)Nc2nc3c(s2)C[Si](C)(c2c(OC)cccc2OC)CC3)cc1-n1cccn1` (stereo not given)?
EC50 [4]: 210 nM; EC50 [5]: 470 nM

With `CCOc1cc(Cl)c(C(=O)NC(=O)Nc2nc3c(s2)CCCC3)cc1N1CCOCC1` as the compound, how does the EC50 [4] read?
Its EC50 is 240 nM.

What does the source list for `CCN(CC)CCC[Si](C)(c1ccc([Si](CC)(CC)CC)o1)c1ccc([Si](CC)(CC)CC)o1`?
IC50 [12]: 3 µg/mL (≈ 5.77 µM); IC50 [13]: 3 µg/mL (≈ 5.77 µM)

Which LC50 [2] does the source give for `CC[Si](CC)(CC)OCC[N+]1(C)CCc2ccccc2C1.[I-]` (stereo not given) here?
Its LC50 is under 1 µg/mL.

And the LC50 [3]?
The LC50 was 2 µg/mL.

With `CCCCCC[Si](C)(CCCCCC)OCC[N+]1(C)CCc2ccccc2C1.[I-]` (stereo not given) as the compound, how does the LC50 [2] read?
The LC50 was under 1 µg/mL.

What about the LC50 [3] of the same compound?
The LC50 was 1 µg/mL.

For `CC1(C)CC(NC(=O)[C@H](Cc2ccc(-c3ccccc3)cc2)NC(=O)c2ccc(OCC[Si](C)(C)C)cc2)CC(C)(C)N1`, which IC50 [14] is on record?
Its IC50 is 1500 nM.

With `CCCC[Si](CC)(CCCC)OCC[N+]1(C)CCc2ccccc2C1.[I-]` (stereo not given) as the compound, how does the LC50 [2] read?
The LC50 was under 1 µg/mL.

What about the LC50 [3] of the same compound?
The LC50 was 2 µg/mL.

Which EC50 [4] does the source give for `CCC[Si]1(c2c(OC)cccc2OC)CCc2nc(NC(=O)NC(=O)c3cc(-n4cccn4)c(OCC)cc3Cl)sc2C1` (stereo not given) here?
Its EC50 is 210 nM.

What about the EC50 [5] of the same compound?
Its EC50 is 470 nM.

Which MIC [15] does the source give for `C[Si](C)(C)C(S)(C(=S)CCCCn1nnc(Sc2ccccc2)n1)[Si](C)(C)C` here?
Its MIC is 3.91 µg/mL (≈ 8.34 µM).

What about the MIC [16] of the same compound?
The MIC was 3.91 µg/mL (≈ 8.34 µM).

And the MIC [17]?
The MIC was 3.91 µg/mL (≈ 8.34 µM).

And the MIC [18]?
The MIC was 3.91 µg/mL (≈ 8.34 µM).

Which IC50 [14] does the source give for `CCC[Si](C)(C)Oc1ccc(C(=O)N[C@@H](Cc2ccc(OCc3c(Cl)cccc3Cl)cc2)C(=O)NC2CC(C)(C)NC(C)(C)C2)cc1` here?
Its IC50 is 1500 nM.

With `CC(C)=CCN1CC[Si]2(CCCc3ccccc32)CC1` as the compound, how does the Ki [7] read?
The Ki was 300 nM.

What does the source list for `CCCCCCCC[Si](C)(C)OCC[N+]1(C)CCc2ccccc2C1.[I-]` (stereo not given)?
LC50 [2]: < 1 µg/mL; LC50 [3]: 1 µg/mL

For `C[Si](C)(C)C(S)(C(=S)CCCCn1nnc(SC(=O)c2ccccc2)n1)[Si](C)(C)C`, which MIC [15] is on record?
Its MIC is 3.91 µg/mL (≈ 7.87 µM).

And the MIC [16]?
The MIC was 3.91 µg/mL (≈ 7.87 µM).

What about the MIC [17] of the same compound?
The MIC was 3.91 µg/mL (≈ 7.87 µM).

And the MIC [18]?
The MIC was 3.91 µg/mL (≈ 7.87 µM).

With `CCCCCCCCCCC[Si](C)(C)OCC[N+]1(C)CCc2ccccc2C1.[I-]` (stereo not given) as the compound, how does the LC50 [2] read?
The LC50 was under 1 µg/mL.

And the LC50 [3]?
The LC50 was 1 µg/mL.

Which IC50 [12] does the source give for `CN1CCN(CCC[Si](C)(c2ccc([Si](C)(C)C)o2)c2ccc([Si](C)(C)C)o2)CC1` here?
Its IC50 is 3 µg/mL (≈ 6.48 µM).

What about the IC50 [13] of the same compound?
The IC50 was 3 µg/mL (≈ 6.48 µM).

Which IC50 [14] does the source give for `CCOP(=O)(OCC)C(NC(=O)[C@H](Cc1ccc(-c2ccccc2)cc1)NC(=O)c1ccc(OCC[Si](C)(C)C)cc1)P(=O)(OCC)OCC` here?
The IC50 was 1500 nM.

For `CC1(C)CC(NC(=O)[C@H](Cc2ccc(OCc3c(Cl)cccc3Cl)cc2)NC(=O)c2ccc(OCC[Si](C)(C)C)cc2)CC(C)(C)N1`, which IC50 [14] is on record?
The IC50 was 1500 nM.

For `CC(C)(C)[Si](c1ccccc1)(c1ccccc1)c1cccc(CN(Cc2ccccn2)Cc2ccccn2)c1O`, which MIC [19] is on record?
Its MIC is 1.2 µg/mL (≈ 2.21 µM).

Which inhibition at 1 µg/mL [1] does the source give for `Cn1cc(C(=O)C(C#N)c2ccc([Si](C)(C)C)cc2F)c(C(F)F)n1` (stereo not given) here?
Its inhibition at 1 µg/mL is 91.2%.

With `CC(C)(C)[Si](C)(C)c1cccc(CN(Cc2ccccn2)Cc2ccccn2)c1O` as the compound, how does the MIC [19] read?
The MIC was 1.2 µg/mL (≈ 2.86 µM).
